US20250222109A1, “STRUCTURED LIPID COMPOSITIONS” (Universität Bern, priority 2022, published 2025)
Structures can show the parent of a compound that is named as a salt.

Experiments:
[1] = SAXS phase identification of MLO-water mesophases (TIF-Gel); type: physicochemical
Protocol: SAXS measurements were used to determine the phase identity and symmetry of the produced LMPs. Measurements were performed on a Bruker AXS Micro, with a microfocused X-ray source, operating at voltage and filament current of 50 kV and 1000 μA, respectively. The Cu Kα radiation (λCu Kα=1.5418 Å) was collimated by a 2D Kratky collimator, and the data were collected by a 2D Pilatus 100K detector. The scattering vector Q=(4π/λ) sin θ, with 2θ being the scattering angle, was calibrated using silver behenate. Data were collected and azimuthally averaged using the Saxsgui software to yield 1D intensity vs. scattering vector Q, with a Q range from 0.001 to 0.5 Å^−1. For all measurements the samples were placed inside a stainless-steel cell between two thin replaceable mica sheets and sealed by an O-ring, with a sample volume of 10 μL and a thickness of ˜1 mm. Measurements were performed at 25° C., 30° C., 34° C., 36° C. and 38° C. Samples were equilibrated for 10 min before measurements whereas scattered intensity was collected over 30 min and over 60 min in case of lamellar phase. On the other hand, for the kinetic study, the sample was pre equilibrated at 25° C. and inserted in the sample holder kept at 38° C. and the scattered intensity collected over 5 min. To determine the structural parameters such as the size of the water channels, SAXS data information on the lattice were combined with the composition of the samples (R. Mezzenga, et al., Shear rheology of lyotropic liquid crystals: a case study, Langmuir 21, 3322-3333 (2005)).
MLO was used as the lipid component of the mesophases and mixed with weighed amounts of drugs (10% w/w) in sealed Pyrex tubes and alternatively centrifuging (10 min, 5000 g) several times at room temperature until a homogenous mixture was obtained. The mesophase was then equilibrated for 48 h at room temperature in the dark (see, FIGS. 1A and 1B).
Firstly, small angle X-ray scattering (SAXS) measurements were used to determine the optimal amount of water needed to obtain a lamellar phase which provides a transition to a cubic at 38° C. (FIGS. 2B and 2C). The X-ray beam directed at the gel results in a scattering pattern with a set of maxima, that correspond to sharp Bragg reflections characteristic of the long-range positional order. The sequence of Bragg reflections (and their ratio; listed in FIG. 2A) identifies the symmetry of the mesophase studied (See also FIGS. 1A and 1B).

[2] = Stability study of TAC and TOFA-loaded TIF-Gel (HPLC); type: physicochemical; conditions: 4° C. and 25° C., one-month period
Protocol: The TAC and TOFA-loaded TIF-Gels were prepared according to Example 1. […] The TAC-loaded TIF-Gel composition comprised a) a carrier comprising: a1) water in an amount of 16% by weight of the carrier; and a2) MLO in an amount of 84% by weight of the carrier; and b) TAC in an amount of 1% by weight of the composition. […] At specific time points, an aliquot of the formulation was analysed at the HPLC, and the content of the drug was recorded. Data are expressed as relative percentage referred to day 0.

[3] = Drug encapsulation and distribution in TIF-Gel (WAXS, HPLC of gel layers); type: physicochemical
Protocol: The tube was centrifuged and kept at rest for 24 hours. Subsequently, the gel was divided into 3 different layers (Top, Middle, and Bottom), and the drug content evaluated in each by HPLC.
WAXS measurements were performed on a Bruker AXS Micro, with a microfocused X-ray source, operating at voltage and filament current of 50 kV and 1000 μA, respectively. The Cu Kα radiation (λCu Kα=1.5418 Å) was collimated by a 2D Kratky collimator, and the data were collected by a 2D Pilatus 100K detector. The scattering vector Q=(4π/λ) sin θ, with 2θ being the scattering angle, was calibrated using silver behenate. Data were collected and azimuthally averaged using the Saxsgui software to yield 1D intensity vs. scattering vector Q, with a Q range from 13 to 18 nm-1. For all measurements the samples were placed inside a stainless-steel cell between two thin replaceable mica sheets and sealed by an O-ring, with a sample volume of 10 μL and a thickness of ˜1 mm.
The TAC loaded mesophase composition comprised: a) a carrier comprising: a1) water in an amount of 16% by weight of the carrier; and a2) MLO in an amount of 84% by weight of the carrier; and b) TAC in an amount of 1% by weight of the composition.

[4] = system: dextran sulfate sodium (DSS)-induced acute colitis; assay: Chemically induced colitis based on application of DSS; type: in vivo, mice
Excerpt: Female 6-8 week-old C57B/6J Mice (ex. Charles River Germany) were maintained under specific and opportunistic pathogen-free (SOPF) microbiota conditions at the animal facility of the University of Bern. Mice were ear marked, randomly assigned to different cages and treatment groups, and bedding mixed between all cages to avoid potential cage effects on microbiota. All methods used were approved by the Bernese animal welfare authority (permission no. BE 20/18). […] The next day, mouse drinking water was supplemented with 2% w/v dextran sodium sulfate (DSS; MP Biomedicals, 160110). Every other day, the different compounds were applied intra-rectally until the end of the experiment. During the experiment, the mice were constantly monitored and the weight and disease scores were recorded when appropriate. Disease score was determined by grading of 1-4 of the following criteria (with grade 4 corresponding to most unhealthy/abnormal): posture, mobility, fur appearance, weight, stool consistency, and stool colour (L. F. Mager, et al., The ESRP1-GPR137 axis contributes to intestinal pathogenesis, Elife 6 (2017), doi: 10.7554/eLife.28366.). […]
The gating strategy was adapted from the inventors previously published work (S. E. Liyanage, et al., Flow cytometric analysis of inflammatory and resident myeloid populations in mouse ocular inflammatory models, Exp. Eye Res. 151, 160-170 (2016)). […] Splenocytes were quantified using a CASY cell counter (Omni Life Sciences) and the following populations were quantified following single cell and live/dead selection (Thermofischer, L34961). […] Stained cells were analysed on a BD Bioscience LSR II SORP flow cytometer.
DSS is toxic to epithelial cells and its application compromises the integrity of the intestinal barrier, thereby leading to activation of submucosal immune cells by intestinal microbes. Through experimentation, it was determined that bi-daily application of the gel yielded robust mitigation of local and systemic inflammation.

[5] = SAXS phase identification of MLO-water mesophases (TIF-Gel); type: physicochemical; conditions: 5 mg of TOFA and 1 mg of TAC in 100 mg of gel
[6] = In vitro release of TOFA and TAC from TIF-Gel, vertical diffusion cells; type: physicochemical; conditions: HEPES pH 7.4, 37° C., 8 h
Excerpt: In the in vitro release experiments, drug-loaded TIF-Gel formulations were placed in the donor chamber of a vertical diffusion cell (as depicted in FIG. 3G) and kept separated from the acceptor chamber by a polycarbonate membrane with pore diameter of 3 μm, which allows the passage of the free drugs only.

[7] = rectal, every other day, vs empty TIF-Gel

Row | phase identity (SAXS) ([1]; 12% of water, 25° C. and 38° C.) | phase identity (SAXS) ([1]; 14% of water, 25° C.) | phase identity (SAXS) ([1]; 16% w/w of water and 84% w/w of MLO, 25° C.) | phase identity (SAXS) ([1]; 16% w/w of water and 84% w/w of MLO, 38° C.) | temperature of the L→Q transition ([1]; 18% w/w of water) | phase transition in the presence of lipase ([1]; lipase 1000 U/mL) | time of conversion of precursor L phase into the cubic phase ([1]; once applied into the rectum) | long-term stability of drug loaded into TIF-gel (drug content by HPLC) [2] | distribution of drug in the gel matrix ([3]; Top, Middle and Bottom gel layers, HPLC) | drug crystallisation in the gel (WAXS) ([3]; embedded in the 3D gel structure) | encapsulation efficacy ([3]; encapsulated in the TIF-Gel) | drug release from the gel vs free drug, in vitro [6] | Compound | phase identity (SAXS) ([1]; 14% of water, 38° C.) | local pro-inflammatory cytokine levels ([4]; colon tissue) | disease score / disease severity [4, 7] | weight loss [4, 7] | effect of drug on phase identity and transition temperature of the gel ([1]; 10% w/w of drug, lamellar at room temperature, cubic (Ia3d) at 38° C.) | effect of drug entrapment on phase identity and thermal behaviour of the carrier gel [5]
1 | L phase | lamellar structure | lamellar structure | Q structure (with a Ia3d geometry) | 30 °C | Q→Hexagonal phase (H) | < 5 min | – | – | – | – | – | CCCCC/C=C\C/C=C\CCCCCCCC(=O)OCC(O)CO (stereo not drawn) [MLO, 2,3-dihydroxypropyl(9Z,12Z)-9,12-octadecadienoate] | coexistence of L and Q structure (with a Ia3d geometry) | – | – | – | – | –
2 | – | – | – | – | – | – | – | stable | homogeneously distributed | do not form crystals | 100% | decreased the release rate | C[C@@H]1CCN(C(=O)CC#N)C[C@@H]1N(C)c1ncnc2[nH]ccc12 [TOFA, Tofacitinib citrate] | – | reduced | did not improve the disease score | improving weight loss | did not affect the phase identity and the transition temperature | did not affect the phase identity and thermal behaviour
